Article PMC9412875, “^64Cu-DOTHA2-PSMA, a Novel PSMA PET Radiotracer for Prostate Cancer with a Long Imaging Time Window” (Pharmaceuticals, 2022)
Read-outs that look alike come from different tables or passages of the source.

What was measured:
[1] = molecular target: PSMA; parameters: method as in PMID 25883127; settings: cited from earlier work
[2] = Plasma stability (ex vivo) and protein binding in mouse serum/plasma; type: in vitro ADME; settings: incubation of free 64Cu(OAc)2 in mouse plasma
Description: Plasma stability studies were carried out by incubating ^64Cu-DOTHA2-PSMA (50 MBq in 250 μL PBS buffer) in 250 μL of mouse serum at 37 °C for up to 24 h. The plasma was then mixed twice with ethanol (1:1) to precipitate all the proteins. The samples were subjected to vortex mixing for 1 min and then centrifugation for 10 min at 7000 rpm. Plasma proteins were separated from the soluble component by ultracentrifugation and the radioactivity was assessed. The supernatant fraction was assayed by radio-TLC on C18 plates and by UPLC; free ^64Cu(OAc)2 and ^64Cu-DOTHA2-PSMA were used as standards. The radio-TLCs were eluted with 0.1 M sodium citrate buffer at pH 5.5 using an Instant Imager system (BioScan, DC, U.S.A.) for radiodetection. The precipitated proteins were again subjected to 10% TFA, vortexed for 2–3 min, and then centrifuged for 10 min at 7000 rpm. The separation and analysis for the supernatant and the proteins were performed in the same manner.
The protein binding ability was evaluated by incubating ^64Cu-DOTHA2-PSMA (100 MBq) in phosphate buffer (250 μL, pH 7) at 37 °C and fresh mouse serum (250 μL) and for 1 h, 4 h, and 24 h. Plasma proteins were precipitated by the addition of ethanol (1:1, v/v) to the plasma samples, followed by centrifugation at 7000 rpm for 5 min at room temperature and separation of the supernatant. This process was repeated three times with the same volume of ethanol, and the supernatants were pooled. The radioactivity content of the supernatant and the precipitated protein were measured in a dose calibrator to obtain the protein binding percentage.

[3] = parameters: method as in PMID 29088775, doi:10.1515/ract-2016-2632; settings: cited from earlier work
[4] = cited from earlier work
[5] = Balb/c mice biodistribution; type: in vivo; settings: 2 h p.i.
Description: ^64Cu-DOTHA2-PSMA biodistribution was assessed in balb/c mice (n = 30) by harvesting blood and organs at 1 h, 2 h, 4 h, 24 h, and 48 h p.i. to measure tissue radioactivity and weight. Results were reported as the %IA/g of tissue and compared with the radiotracer used for clinical imaging in our facility, ^68Ga-PSMA-617.
Balb/c mice (n = 30) were injected with a bolus of ^64Cu-DOTHA2-PSMA by the tail vein (in 0.3 mL of saline: 3 MBq for 1 h, 2 h, and 4 h p.i., 7.5 MBq for 24 h p.i. and 21 MBq for 48 h p.i.). Injected activity had to be increased for later time points to ensure reliable detection and reliability in organs with a low uptake, e.g., the brain. At all timepoints, blood was collected using a heparin-coated syringe by femoral vein puncture and mice were then euthanized and dissected. Harvested tissues were rinsed, blotted dry, and then weighted and counted in gamma counter. The results are reported as the %IA per gram of tissue. The biodistribution results were compared with the ^68Ga-PSMA-617 results obtained by our team at 1 h and 2 h p.i.

[6] = test system: LNCaP cells; assay: Cellular efflux assay; type: cell-based, human; settings: 1h incubation
Description: Here, 12-well polylysine-coated Cellbind plates were seeded with 150 × 10^3 LNCaP cells with 1.75 mL of cell media. At 70–100% confluence (3 days of growth), the cell medium was changed and 37 kBq of ^64Cu-DOTHA2-PSMA in 1 mL of cell medium was added to each well of group 1 and 160 kBq to each of group 2.
For efflux assays, after adding ^64Cu-DOTHA2-PSMA, cells were incubated for 60 min for the time points 15 min to 4 h (group 1) and incubated for 4 h for the time points 4 h to 48 h (group 2). After incubation, the medium was removed, cells were washed with 1 mL of cold PBS, 1 mL of cell media was added and, similarly to uptake and internalization, cells were again incubated in nonradioactive media for 0, 15, 30, 45, 60 min, 2 h, 4 h (group 1) and 4 h, 8 h, 24 h, 32 h or 48 h (group 2) (3 wells per time point). After respective incubation times per well, the medium was removed, and cells were washed with 1 mL of cold PBS, then removed from the well with 1 mL of trypsin to measure the residual radioactivity by gamma counter. The results of residual activity were expressed as percentage of the 1 h (Group 1) or 4 h (Group 2) uptake activity (0 min of efflux time-point) as a function of time for 10^6 cells.
All the assays were performed at least 3 times, each with different ^64Cu-DOTHA2-PSMA production and cell passage. Cells were counted in 3 wells for each protocol (uptake, internalization, and efflux) on day 1 and day 3 of each experiment and an average for cells numbers at day 2.

[7] = molecular target: T1, PSMA on the LNCaP human prostate cell line (Homo sapiens, UniProt Q04609); assay: Cellular competition assay; type: binding
T1 construct: Human prostate adenocarcinoma LNCaP PSMA-expressing cells were purchased from American Type Culture Collection; host or cells: LNCaP human prostate adenocarcinoma cells
T1 sequence (Q04609 whole entry): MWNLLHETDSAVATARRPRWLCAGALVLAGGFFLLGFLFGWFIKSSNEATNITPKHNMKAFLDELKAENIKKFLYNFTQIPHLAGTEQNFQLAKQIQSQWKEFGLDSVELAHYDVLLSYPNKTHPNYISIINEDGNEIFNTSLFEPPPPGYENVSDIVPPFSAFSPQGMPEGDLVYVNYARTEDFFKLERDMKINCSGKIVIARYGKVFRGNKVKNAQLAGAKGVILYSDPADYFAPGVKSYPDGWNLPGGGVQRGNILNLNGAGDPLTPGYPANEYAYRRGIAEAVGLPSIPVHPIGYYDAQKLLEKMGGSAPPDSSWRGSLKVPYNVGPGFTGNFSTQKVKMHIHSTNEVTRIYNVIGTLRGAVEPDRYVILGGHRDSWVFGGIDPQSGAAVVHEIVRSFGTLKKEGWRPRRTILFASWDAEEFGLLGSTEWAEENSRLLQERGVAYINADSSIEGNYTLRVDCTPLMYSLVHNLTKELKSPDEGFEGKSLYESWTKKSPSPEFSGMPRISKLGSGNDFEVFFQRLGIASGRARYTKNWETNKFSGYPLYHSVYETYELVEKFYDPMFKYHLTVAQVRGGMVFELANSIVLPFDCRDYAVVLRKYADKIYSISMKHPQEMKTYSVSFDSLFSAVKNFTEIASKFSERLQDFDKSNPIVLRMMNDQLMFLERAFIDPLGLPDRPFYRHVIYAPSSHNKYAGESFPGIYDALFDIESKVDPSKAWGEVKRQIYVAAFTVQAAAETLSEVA
Description: Here, 12-well polylysine-coated Cellbind plates were seeded with 150 × 10^3 LNCaP cells. […] […] Cells were then incubated for 1 h, after which the medium was removed, cells were washed once with 1 mL of cold PBS, and then 1 mL of trypsin was added to collect cells for radioactivity measurement by gamma-counter. The assays were performed in triplicate, each time with independent ^64Cu-DOTHA2-PSMA production and cell seedings. IC50 was calculated using GraphPad Prism 9 one site fit logIC50.

Question: Which Ki [1] does the source give for `O=C(O)CC[C@H](NC(=O)N[C@@H](CCCCNC(=O)[C@H](Cc1ccc2ccccc2c1)NC(=O)[C@H]1CC[C@H](CNC(=O)CN2CCN(CC(=O)O)CCN(CC(=O)O)CCN(CC(=O)O)CC2)CC1)C(=O)O)C(=O)O` [PSMA-617] here?
Answer: Its Ki is 2.34 ± 2.94 nM.

Question: For `CC(=O)[O-].CC(=O)[O-].[64Cu+2]` [^64Cu(OAc)2], which “proportion of the signal bound to plasma proteins” value [2] is on record?
Answer: Its value is “greater than 90%”.

Question: Which results are given for `O=C([O-])CN1CCN(CC(=O)[O-])CCN(CC(=O)NCC2CCC(C(=O)NC(Cc3ccc4ccccc4c3)C(=O)NCCCCC(NC(=O)NC(CCC(=O)O)C(=O)O)C(=O)O)CC2)CCN(CC(=O)O)CC1.[64Cu+2]` (centres unmarked) [^64Cu-PSMA-617]?
Answer: log D [3]: −1.93 ± 0.13; signal corresponding to the intact product in blood ([4]; 2 h p.i.): 20%; signal corresponding to the intact product in liver ([4]; 2 h p.i.): 28%; signal corresponding to the intact product in urine ([4]; 2 h p.i.): 5.2%; signal corresponding to the intact product in serum ([4]; after 5 min): 71%

Question: Which results are given for `O=C(O)CCC(NC(=O)NC(CCCCNC(=O)C(Cc1ccc2ccccc2c1)NC(=O)C1CCC(CNC(=O)CN2CCN(CC(=O)O)CCN(CC(=O)O)CCN(CC(=O)O)CC2)CC1)C(=O)O)C(=O)O.[68Ga]` (centres unmarked) [^68Ga-PSMA-617, reference compound]?
Answer: log D [3]: −1.98; liver uptake [5]: 0.67 ± 0.16 % IA/g; Retained activity normalized to time 0 ([6]; efflux time 0.25 h): 101.57%; Retained activity normalized to time 0 ([6]; efflux time 0.50 h): 106.07%; Retained activity normalized to time 0 ([6]; efflux time 0.75 h): 97.22%; Retained activity normalized to time 0 ([6]; efflux time 1 h): 84.75%; Retained activity normalized to time 0 ([6]; efflux time 2 h): 81.62%

Question: With `CN([O-])C(=O)CN1CCN(CC(=O)NCC2CCC(C(=O)NC(Cc3ccc4ccccc4c3)C(=O)NCCCCC(NC(=O)NC(CCC(=O)O)C(=O)O)C(=O)O)CC2)CCN(CC(=O)N(C)[O-])CCN(CC(=O)N(C)O)CC1.[Cu+2]` (centres unmarked) [^natCu-DOTHA2-PSMA] as the molecule, how does the IC50 ([7]; in competition with 64Cu-DOTHA2-PSMA, 1 h, reaction medium with 20 g/L BSA, read-out: IC50 on LNCaP) read?
Answer: Its IC50 is 11.3 ± 14.3 nM.

Question: What about the IC50 ([7]; with 10% BSA in RPMI, read-out: IC50) of the same molecule?
Answer: The IC50 was 21.4 nM.

Question: What about the IC50 ([7]; with RPMI only, read-out: IC50) of the same molecule?
Answer: Its IC50 is 9.08 nM.
